Drawing on paper PMC11844072, “Novel 5,6-dichlorobenzimidazole derivatives as dual BRAFWT and BRAFV600E inhibitors: design, synthesis, anti-cancer activity and molecular dynamics simulations” (BMC Chemistry, 2025), this text covers inhibition for 4 molecules.

Common to all, as to test: NCI 60 single concentration growth inhibition
Common to all, as to type: cell-based, human

In assay [1] the test system is BT-549. Conditions: Homo sapiens, BT-549, Breast cancer, read-out: GI%. How it is done:
(§1) The synthesized dichlorobenzimidazoles 10a–p were assayed for their influence on divers cancer cell lines according to the method presented in the Additional file A.
(§2) 5. Screening of cytotoxic activity against a panel of sixty human tumor cell lines
(§3) The selected compounds by NCI were evaluated for their anticancer activity in a two-stage process. First, these compounds were screened against the full NCI 60 cell lines panel at a single high dose of 10 µM. Then, the output from the single dose screen is reported as a mean graph. […]
(§4) at five different minimal concentrations.
(§5) Assay protocol. The human tumor cell lines of the cancer screening panel are grown in RPMI 1640 medium containing 5% fetal bovine serum and 2 mM L-glutamine. For a typical screening experiment, cells are inoculated into 96 well microtiter plates in 100 µL at plating densities ranging from 5000 to 40,000 cells/well depending on the doubling time of individual cell lines. After cell inoculation, the microtiter plates are incubated at 37 °C, 5% CO 2, 95% air and 100% relative humidity for 24 h prior to addition of the experimental drugs.
(§6) After 24 h, two plates of each cell line are fixed in situ with TCA, to represent a measurement of the cell population for each cell line at the time of drug addition (Tz). The experimental drugs are solubilized in dimethyl sulfoxide at 400-fold the desired final maximum test concentration and stored frozen prior to use. At the time of drug addition, an aliquot of frozen concentrate is thawed and diluted to twice the desired final maximum test concentration with complete medium containing 50 µg/mL gentamicin. Additional four, 10-fold or ½ log serial dilutions are made to provide a total of five drug concentrations plus control.
(§7) Aliquots of […] of these different drug dilutions are added to the appropriate microtiter wells already containing […] of medium, resulting in the required final drug concentrations.
(§8) Following drug addition, the plates are incubated for an additional 48 h at 37 °C, 5% CO 2, 95% air, and 100% relative humidity. For adherent cells, the assay is terminated by the addition of cold TCA.
(§9) Cells are fixed in situ by the gentle addition of 50 µL of cold 50% (w/v) TCA (final concentration, 10% TCA) and incubated for 60 min at 4 °C. The supernatant is discarded, and the plates are washed five times with tap water and air dried. Sulforhodamine B (SRB) solution ([…]) at 0.4% (w/v) in 1% acetic acid is added to each well, and plates are incubated for 10 min at room temperature. After staining, unbound dye is removed by washing five times with 1% acetic acid and the plates are air dried. Bound stain is subsequently solubilized with 10 mM trizma base, and the absorbance is read on an automated plate reader at a wavelength of 515 nm. For suspension cells, the methodology is […]
(§10) the same except that the assay is terminated by fixing settled cells at the bottom of the wells by gently adding 50 µl of 80% TCA (final concentration, 16% TCA). Using the seven absorbance measurements [time zero, (Tz), control growth, (C), and test growth in the presence of drug at the five concentration levels (Ti)], the percentage growth is calculated at each of the drug concentrations […]
(§11) Percentage growth inhibition is calculated as: [(Ti Tz)/(C–Tz)] x 100 for concentrations for which Ti>/=Tz and [(Ti-Tz)/Tz] x 100 for concentrations for which Ti < Tz.
(§12) Three dose response parameters are calculated for each experimental agent. Growth […]
(§13) concentration resulting in a 50% reduction in the net protein increase (as measured by SRB staining) in control cells during the drug incubation. The drug concentration resulting in total growth inhibition (TGI) is calculated from Ti = Tz. […]
(§14) reduction in the measured protein at the end of the drug treatment as compared to that at the beginning) indicating a net loss of cells following treatment is calculated from [(Ti–Tz)/Tz] x 100 =
(§15) _50. Values are calculated for each of these three parameters if the level of activity is reached; […]

Assay [2] concerns HL-60(TB). Conditions: Homo sapiens, Leukemia, read-out: GI%. How it is done: as §1, §2, §3, §4, §5, §6, §7, §8, §9, §10, §11, §12, §13, §14, §15
The test system of assay [3] is SK-MEL-2. The settings on record: Homo sapiens, SK-MEL-2, Melanoma, read-out: GI%. How it is done: as §1, §2, §3, §4, §5, §6, §7, §8, §9, §10, §11, §12, §13, §14, §15
In assay [4] the test system is SK-MEL-5. Conditions: Homo sapiens, SK-MEL-5, Melanoma, read-out: GI%. The procedure:
as §1, §2, §3, §4, §5, §6, §7, §8, §9, §10, §11, §12, §13, §14, §15

The test system of assay [5] is RPMI-8226. Conditions: Homo sapiens, RPMI-8226, Leukemia, read-out: GI%. The procedure:
as §1, §2, §3, §4, §5, §6, §7, §8, §9, §10, §11, §12, §13, §14, §15

Assay [6] has as its system CCRF-CEM. Conditions: Homo sapiens, Leukemia, read-out: GI%. How it is done: as §1, §2, §3, §4, §5, §6, §7, §8, §9, §10, §11, §12, §13, §14, §15
The test system of assay [7] is SF-268. The settings on record: Homo sapiens, SF-268, CNS cancer, read-out: GI%. The procedure: as §1, §2, §3, §4, §5, §6, §7, §8, §9, §10, §11, §12, §13, §14, §15
For assay [8], the system named is SN12C. The settings on record: Homo sapiens, Renal cancer, read-out: GI%. The procedure: as §1, §2, §3, §4, §5, §6, §7, §8, §9, §10, §11, §12, §13, §14, §15
Assay [9] relates to A498. The settings on record: Homo sapiens, A498, Renal cancer, read-out: GI%. How it is done: as §1, §2, §3, §4, §5, §6, §7, §8, §9, §10, §11, §12, §13, §14, §15
Assay [10] deals with HS 578T. Conditions: Homo sapiens, Breast cancer, read-out: GI%. How it is done: as §1, §2, §3, §4, §5, §6, §7, §8, §9, §10, §11, §12, §13, §14, §15
Assay [11] concerns ACHN. Conditions: Homo sapiens, Renal cancer, read-out: GI%. How it is done: as §1, §2, §3, §4, §5, §6, §7, §8, §9, §10, §11, §12, §13, §14, §15
Assay [12] concerns MDA-MB-468. The settings on record: Homo sapiens, MDA-MB-468, Breast cancer, read-out: GI%. The procedure: as §1, §2, §3, §4, §5, §6, §7, §8, §9, §10, §11, §12, §13, §14, §15
For assay [13], the system named is UACC-257. Conditions: Homo sapiens, UACC-257, Melanoma, read-out: GI%. How it is done:
as §1, §2, §3, §4, §5, §6, §7, §8, §9, §10, §11, §12, §13, §14, §15

Assay [14] relates to OVCAR-8. The settings on record: Homo sapiens, OVCAR-8, Ovarian cancer, read-out: GI%. The procedure: as §1, §2, §3, §4, §5, §6, §7, §8, §9, §10, §11, §12, §13, §14, §15
In assay [15] the test system is M14. Conditions: Homo sapiens, M14, Melanoma, read-out: GI%. The procedure: as §1, §2, §3, §4, §5, §6, §7, §8, §9, §10, §11, §12, §13, §14, §15
Assay [16] deals with MOLT-4. Conditions: Homo sapiens, MOLT-4, Leukemia, read-out: GI%. How it is done:
as §1, §2, §3, §4, §5, §6, §7, §8, §9, §10, §11, §12, §13, §14, §15

The test system of assay [17] is SF-295. The settings on record: Homo sapiens, SF-295, CNS cancer, read-out: GI%. The procedure: as §1, §2, §3, §4, §5, §6, §7, §8, §9, §10, §11, §12, §13, §14, §15
Assay [18] relates to SR. Conditions: Homo sapiens, Leukemia, read-out: GI%. The procedure:
as §1, §2, §3, §4, §5, §6, §7, §8, §9, §10, §11, §12, §13, §14, §15

Assay [19] concerns HOP-62. Conditions: Homo sapiens, HOP-62, Non-small cell lung cancer, read-out: GI%. How it is done:
as §1, §2, §3, §4, §5, §6, §7, §8, §9, §10, §11, §12, §13, §14, §15

The test system of assay [20] is 786-0. The settings on record: Homo sapiens, 786-0, Renal cancer, read-out: GI%. The procedure:
as §1, §2, §3, §4, §5, §6, §7, §8, §9, §10, §11, §12, §13, §14, §15

In assay [21] the test system is KM12. Conditions: Homo sapiens, KM12, Colon cancer, read-out: GI%. The procedure: as §1, §2, §3, §4, §5, §6, §7, §8, §9, §10, §11, §12, §13, §14, §15
Assay [22] has as its system SK-OV-3. Conditions: Homo sapiens, SK-OV-3, Ovarian cancer, read-out: GI%. The procedure:
as §1, §2, §3, §4, §5, §6, §7, §8, §9, §10, §11, §12, §13, §14, §15

For the molecule `COc1ccc(-c2nc3cc(Cl)c(Cl)cc3n2CC(=O)NN=Cc2cccc(OCC(=O)O)c2)cc1` [Compound 10e, 2-(3-((2-(2-(5,6-Dichloro-2-(4-methoxyphenyl)-1H-benzo[d]imidazol-1-yl)acetyl)hydrazono)methyl)phenoxy)acetic acid], the inhibition at 10 µM in assay [1], in assay [2], in assay [3], in assay [4], in assay [5] and in assay [6] was < 5% in each case. Moreover, the inhibition at 10 µM is < 5% in assay [7]; < 5% in [8]; < 5% in assay [9]; 7.11% in [10]; < 5% in assay [11]; < 5% in [12]. The inhibition at 10 µM in [13] is < 5%; in [14], < 5%; in [15] it was 6.12%; in assay [16] it was < 5%; in assay [17], < 5%; in assay [18], < 5%. For the same molecule, the inhibition at 10 µM in assay [19], in assay [20], in assay [21] and in assay [22] was < 5% each time.

`COc1ccc(-c2nc3cc(Cl)c(Cl)cc3n2CC(=O)NN=Cc2ccc(OCC(=O)O)cc2)cc1` [Compound 10f, 2-(4-((2-(2-(5,6-Dichloro-2-(4-methoxyphenyl)-1H-benzo[d]imidazol-1-yl)acetyl)hydrazono)methyl)phenoxy)acetic acid]: the inhibition at 10 µM in assay [1], in assay [2], in [3], in assay [4], in assay [5] and in [6] was < 5% each time. Besides, the inhibition at 10 µM was < 5% in assay [7]; < 5% in [8]; < 5% in assay [9]; < 5% in [10]; < 5% in assay [11]; 6.38% in [12]. Besides, the inhibition at 10 µM in assay [13], in [14], in assay [15], in assay [16], in assay [17] and in [18] was < 5% throughout. Further, the inhibition at 10 µM in assay [19], in assay [20], in assay [21] and in assay [22] was < 5% each time.

Regarding `COC(=O)COc1cccc(C=NNC(=O)Cn2c(-c3ccc(OC)cc3)nc3cc(Cl)c(Cl)cc32)c1` [Compound 10g, Methyl-2-(3-((2-(2-(5,6-dichloro-2-(4-methoxyphenyl)-1H-benzo[d]imidazol-1-yl)acetyl)hydrazono)methyl)phenoxy)acetate], the inhibition at 10 µM is < 5% in [1]; < 5% in assay [2]; < 5% in assay [3]; 8.95% in [4]; < 5% in [5]; 20.9% in assay [6]. For the same molecule, the inhibition at 10 µM was < 5% in assay [7]; 40.7% in [8]; < 5% in [9]; 13.9% in [10]; < 5% in assay [11]; 112% in assay [12]. Moreover, the inhibition at 10 µM in assay [13] is < 5%; in [14], 84.2%; in assay [15], < 5%; in assay [16], 30.4%; in [17] it was < 5%; in [18], 78.3%. Also, the inhibition at 10 µM in assay [19] is < 5%; in [20], 10%; in [21], < 5%; in assay [22] it was < 5%.

With `COC(=O)COc1ccc(C=NNC(=O)Cn2c(-c3ccc(OC)cc3)nc3cc(Cl)c(Cl)cc32)cc1` [Compound 10h, Methyl-2-(4-((2-(2-(5,6-dichloro-2-(4-methoxyphenyl)-1H-benzo[d]imidazol-1-yl)acetyl)hydrazono)methyl)phenoxy)acetate], the inhibition at 10 µM in assay [1] is 6.87%; in [2] it was < 5%; in [3] it was 26.4%; in [4], < 5%; in assay [5], < 5%; in [6] it was 28.1%. Also, the inhibition at 10 µM was < 5% in assay [7]; 66.4% in [8]; < 5% in [9]; 72.2% in [10]; 106% in assay [11]; 177% in assay [12]. The inhibition at 10 µM in assay [13] was < 5%; in assay [14] it was 148%; in assay [15] it was 10.8%; in [16], 53.2%; in [17], < 5%; in assay [18], 81.1%. The inhibition at 10 µM was < 5% in assay [19], 112% in assay [20], < 5% in assay [21] and < 5% in assay [22].
